Data: US12410195B2, “Pharmaceutical compositions comprising 4-((6bR,10aS)-3-methyl-2,3,6b,9,10,10a-hexahydro-1H-pyrido[3′,4′:4,5]pyrrolo[1,2,3-de]quinoxalin-8(7H)-yl)-1-(4-((6bR,10aS)-3-methyl-2,3,6b,9,10,10a-hexahydro-1H-pyrido[3′,4′:4,5]pyrrolo[1,2,3-de]quinoxalin-8(7H)-yl)phenyl)butan-1-one for treating conditions …” (INTRA-CELLULAR THERAPIES, INC., priority 2019, dated 2025)

What was measured:
[1] = system: symptoms of emotional experience (negative symptoms of schizophrenia); test: Clinical studies in patients with acute exacerbated schizophrenia; format: in vivo, human; details: once daily 60 mg P.O., up to 28 days, two clinical studies
Text: Social avoidance can be a critical and debilitating symptom in patients suffering from anxiety disorders, especially social anxiety disorder, as well as in patients suffering from traumatic anxiety disorders. Social avoidance is often one of the key determinants of whether a person with a severe anxiety disorder is capable of maintaining familial relationships or employment relationships. […] Negative symptoms of schizophrenia can be divided into two categories: emotional experience (e.g., emotional withdrawal, passive social withdrawal, active social avoidance) and emotional expression (e.g., blunted effect, poor rapport, lack of spontaneity, and motor retardation). […] These are the symptoms that are most highly correlated with interpersonal functioning.

[2] = biological target: SERT (Homo sapiens, UniProt P31645); test: Radioligand receptor binding, SERT (antagonist binding); details: radioligand imipramine
SERT, sequence (P31645 whole entry): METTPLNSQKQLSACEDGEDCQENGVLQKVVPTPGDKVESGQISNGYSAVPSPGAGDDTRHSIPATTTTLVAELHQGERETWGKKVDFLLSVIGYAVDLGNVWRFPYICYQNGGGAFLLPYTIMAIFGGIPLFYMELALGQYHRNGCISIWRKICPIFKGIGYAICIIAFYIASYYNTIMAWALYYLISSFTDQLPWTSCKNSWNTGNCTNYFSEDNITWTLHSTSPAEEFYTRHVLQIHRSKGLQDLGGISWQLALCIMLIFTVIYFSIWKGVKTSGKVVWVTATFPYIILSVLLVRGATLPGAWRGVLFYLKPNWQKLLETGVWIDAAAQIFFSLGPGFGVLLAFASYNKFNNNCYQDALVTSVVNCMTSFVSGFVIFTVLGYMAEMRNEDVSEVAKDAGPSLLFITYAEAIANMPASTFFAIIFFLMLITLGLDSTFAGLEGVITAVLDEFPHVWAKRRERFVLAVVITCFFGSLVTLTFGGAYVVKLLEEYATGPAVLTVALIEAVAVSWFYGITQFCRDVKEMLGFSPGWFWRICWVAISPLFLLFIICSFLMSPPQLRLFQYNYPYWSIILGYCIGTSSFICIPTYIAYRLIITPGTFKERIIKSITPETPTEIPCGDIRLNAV
Experimental: (§1) Receptor binding is determined for the Compounds of Example 1. The following literature procedures are used, each of which reference is incorporated herein by reference in their entireties: 5-HT2A: Bryant, H. U. et al. (1996), Life Sci., 15:1259-1268; D2: Hall, D. A. and Strange, P. G. (1997), Brit. J. Pharmacol., 121:731-736; D1: Zhou, Q. Y. et al. (1990), Nature, 347:76-80; SERT: Park, Y. M. et al. (1999), Anal. Biochem., 269:94-104; Mu opiate receptor: Wang, J. B. et al. (1994), FEBS Lett., 338:217-222.
(§2) The compound of Example 1 is tested at a concentration of […] in DMSO solution. Compound binding is calculated as the percent inhibition of the binding of a radioactively labeled ligand specific for each target. The control ligands are radiolabeled forms of SCH 23390 (for D1), 7-hydroxy-DPAT (for D2S), racemic DOI (for 5-HT2A and 5-HT2B), veratridine (for sodium channel site 2), protriptyline (for NET) and imipramine (for SERT).
(§3) In general, the results are expressed as a percent of control specific binding:
(§4) [formula] and as a percent inhibition of control specific binding:
(§5) [formula] obtained in the presence of the test compound (compound of Example 1).
(§6) Further pharmacology studies are conducted to determine IC50 values for receptor binding to the 5-HT2A receptor, D1 receptor, and SERT. For each study, the compound of Example 1 is tested at a range of concentrations and compound binding at each concentration is calculated as the percent inhibition of the binding of a radioactively labeled ligand specific for the target. The control ligands are radiolabeled forms of […], racemic DOI (for 5-HT2A), and imipramine (for SERT). The IC50 value is determined by non-linear regression analysis of the competition curve generated with mean replicate values using Hill Equation curve fitting:
(§7) [formula] wherein Y is specific binding, A is the left asymptote of the curve, D is the right asymptote of the curve, C is the compound concentration, and nH is the slope factor. Ki values are calculated using the Cheng Prusoff equation: […]

[3] = biological target: 5-HT2A receptor (Homo sapiens, UniProt P28223); test: Radioligand receptor binding, 5-HT2A (agonist binding); details: radioligand racemic DOI
5-HT2A receptor, sequence (P28223 whole entry): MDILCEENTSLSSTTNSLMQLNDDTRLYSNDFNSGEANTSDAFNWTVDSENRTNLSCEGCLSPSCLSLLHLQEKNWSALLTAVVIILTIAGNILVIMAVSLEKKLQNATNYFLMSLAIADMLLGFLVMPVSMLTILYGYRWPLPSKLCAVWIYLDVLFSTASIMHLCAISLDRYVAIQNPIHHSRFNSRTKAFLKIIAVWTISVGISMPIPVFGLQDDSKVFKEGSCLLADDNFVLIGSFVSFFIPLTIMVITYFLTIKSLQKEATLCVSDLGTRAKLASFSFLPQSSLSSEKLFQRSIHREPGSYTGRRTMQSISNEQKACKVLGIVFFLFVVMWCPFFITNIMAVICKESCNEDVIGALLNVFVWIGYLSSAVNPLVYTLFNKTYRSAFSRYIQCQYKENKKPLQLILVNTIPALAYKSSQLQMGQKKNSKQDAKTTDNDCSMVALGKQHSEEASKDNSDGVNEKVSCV
Experimental: as §1, §2, §3, §4, §5, §6, §7

[4] = biological target: 5-HT2B (Homo sapiens, UniProt P41595); test: Radioligand receptor binding, 5-HT2B (agonist binding); set-up: dose or concentration left out as unconfirmed; details: in DMSO solution; radioligand racemic DOI
5-HT2B, sequence (P41595 whole entry): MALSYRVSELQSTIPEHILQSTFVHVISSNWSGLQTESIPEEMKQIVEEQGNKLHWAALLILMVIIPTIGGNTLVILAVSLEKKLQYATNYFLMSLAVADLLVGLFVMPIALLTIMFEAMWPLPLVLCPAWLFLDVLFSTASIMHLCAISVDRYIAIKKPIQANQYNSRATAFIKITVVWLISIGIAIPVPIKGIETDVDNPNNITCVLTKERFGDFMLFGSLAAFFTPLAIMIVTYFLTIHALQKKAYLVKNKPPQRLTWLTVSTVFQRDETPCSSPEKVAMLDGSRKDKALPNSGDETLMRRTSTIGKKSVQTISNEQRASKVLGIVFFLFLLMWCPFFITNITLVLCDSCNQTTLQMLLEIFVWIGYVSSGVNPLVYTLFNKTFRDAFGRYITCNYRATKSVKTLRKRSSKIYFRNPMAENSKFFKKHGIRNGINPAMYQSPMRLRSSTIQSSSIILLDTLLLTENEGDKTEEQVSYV
Experimental: as §1, §2, §3, §4, §5

[5] = biological target: D2S (Homo sapiens, UniProt P14416); test: Radioligand receptor binding, D2S (agonist binding); details: radioligand 7-hydroxy-DPAT
D2S, sequence (P14416 1-414 isoform P14416-2): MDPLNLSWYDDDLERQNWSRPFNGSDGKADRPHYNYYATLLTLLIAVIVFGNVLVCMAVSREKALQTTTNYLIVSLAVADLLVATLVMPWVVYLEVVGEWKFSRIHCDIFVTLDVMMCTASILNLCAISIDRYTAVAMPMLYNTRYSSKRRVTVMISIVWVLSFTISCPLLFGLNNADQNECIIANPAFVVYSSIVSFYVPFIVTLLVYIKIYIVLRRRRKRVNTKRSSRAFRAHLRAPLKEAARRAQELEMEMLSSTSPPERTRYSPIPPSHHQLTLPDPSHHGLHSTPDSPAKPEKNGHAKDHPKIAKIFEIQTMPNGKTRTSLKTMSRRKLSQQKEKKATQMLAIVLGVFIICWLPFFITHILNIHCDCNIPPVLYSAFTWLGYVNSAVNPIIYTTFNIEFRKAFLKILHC
Experimental: as §1, §2, §3, §4, §5, §6, §7

[6] = biological target: D1 (Homo sapiens, UniProt P21728); test: Radioligand receptor binding, D1 (antagonist binding); set-up: dose or concentration left out as unconfirmed; details: in DMSO solution; radioligand SCH 23390
D1, sequence (P21728 whole entry): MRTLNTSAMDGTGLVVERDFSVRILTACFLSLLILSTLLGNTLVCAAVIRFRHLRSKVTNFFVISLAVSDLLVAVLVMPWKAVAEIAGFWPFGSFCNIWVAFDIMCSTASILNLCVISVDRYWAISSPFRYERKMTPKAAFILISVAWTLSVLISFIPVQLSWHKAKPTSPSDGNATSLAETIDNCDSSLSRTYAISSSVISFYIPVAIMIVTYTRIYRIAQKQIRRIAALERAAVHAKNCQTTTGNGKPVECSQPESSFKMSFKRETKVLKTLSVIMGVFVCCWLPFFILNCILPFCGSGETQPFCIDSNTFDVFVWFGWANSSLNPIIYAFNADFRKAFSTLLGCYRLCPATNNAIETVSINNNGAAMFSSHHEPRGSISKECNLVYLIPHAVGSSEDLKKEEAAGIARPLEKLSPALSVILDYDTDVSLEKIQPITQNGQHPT
Experimental: as §1, §2, §3, §4, §5

[7] = system: Sodium channel (site 2); test: Radioligand binding, sodium channel site 2 (antagonist binding); details: tested at 1.01.1M in DMSO solution; radioligand veratridine
Experimental: as §2, §3, §4, §5

[8] = biological target: NET (Homo sapiens, UniProt P23975); test: Radioligand binding, NET (antagonist binding); set-up: dose or concentration left out as unconfirmed; details: tested in DMSO solution; radioligand protriptyline
NET, sequence (P23975 whole entry): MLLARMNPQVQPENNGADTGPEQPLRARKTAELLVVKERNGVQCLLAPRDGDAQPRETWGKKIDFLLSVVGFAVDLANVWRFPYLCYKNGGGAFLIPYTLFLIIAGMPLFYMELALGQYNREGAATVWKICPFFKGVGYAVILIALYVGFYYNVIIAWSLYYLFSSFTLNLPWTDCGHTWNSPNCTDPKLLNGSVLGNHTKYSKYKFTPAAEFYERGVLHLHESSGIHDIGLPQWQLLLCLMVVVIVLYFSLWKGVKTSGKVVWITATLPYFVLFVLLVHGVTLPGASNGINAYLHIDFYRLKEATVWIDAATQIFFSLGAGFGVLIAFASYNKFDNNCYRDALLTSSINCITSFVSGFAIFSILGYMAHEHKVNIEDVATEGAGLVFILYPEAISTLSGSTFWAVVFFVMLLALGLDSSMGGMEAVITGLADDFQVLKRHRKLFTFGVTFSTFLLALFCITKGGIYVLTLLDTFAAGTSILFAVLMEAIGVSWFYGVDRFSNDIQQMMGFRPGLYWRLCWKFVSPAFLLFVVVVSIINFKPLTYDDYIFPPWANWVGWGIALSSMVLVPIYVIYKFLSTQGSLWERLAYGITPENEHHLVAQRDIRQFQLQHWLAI
Experimental: as §2, §3, §4, §5

[9] = tested at 1.01.1M in DMSO solution

| Structure (SMILES) | symptoms of emotional experience compared to placebo [1] | Ki ([2]; Cheng Prusoff equation) [µM] | IC50 ([2]; Hill equation curve fitting) [µM] | % inhibition of control specific binding, SERT (antagonist binding) [2, 9] [%] | Ki ([3]; Cheng Prusoff equation) [µM] | IC50 ([3]; Hill equation curve fitting) [µM] | % inhibition of control specific binding, 5-HT2A (agonist binding) [3, 9] [%] | % inhibition of control specific binding, 5-HT2B (agonist binding) [4] [%] | Ki ([5]; Cheng Prusoff equation) [µM] | IC50 ([5]; Hill equation curve fitting) [µM] | % inhibition of control specific binding, D2S (agonist binding) [5, 9] [%] | % inhibition of control specific binding, D1 (antagonist binding) [6] [%] | % inhibition of control specific binding, Sodium channel (site 2 antagonist binding) [7] [%] | % inhibition of control specific binding, NET (antagonist binding) [8] [%] |
| --- | --- | --- | --- | --- | --- | --- | --- | --- | --- | --- | --- | --- | --- | --- |
| CN1CCN2c3c(cccc31)[C@@H]1CN(CCCC(=O)c3ccc(F)cc3)CC[C@@H]12 [lumateperone, 4-((6bR,10aS)-3-methyl-2,3,6b,9,10,10a-hexahydro-1H-pyrido[3′,4′: 4,5]pyrrolo[1,2,3-de]quinoxalin-8(7H)-yl)-1-(4-fluorophenyl)-1-butanone] | significant and unexpected improvement | – | – | – | – | – | – | – | – | – | – | – | – | – |
| CN1CCN2c3c(cccc31)[C@@H]1CN(CCCC(=O)c3ccc(N4CC[C@H]5[C@@H](C4)c4cccc6c4N5CCN6C)cc3)CC[C@@H]12 [Compound 1, 4-((6bR,10aS)-3-methyl-2,3,6b,9,10,10a-hexahydro-1H-pyrido[3′,4′: 4,5]pyrrolo[1,2,3-de]quinoxalin-8(7H)-yl)-1(4-((6bR,10aS)-3-methyl-2,3,6b,9,10,10a-hexahydro-1H-pyrido[3′,4′: 4,5]pyrrolo[1,2,3-de]quinoxalin-8(7H)-yl)phenyl)butan-1-one] | – | 0.0013 | 0.0029 | 99.9 | 0.051 | 0.068 | 90.8 | 87.0 | 0.072 | 0.18 | 80.63 | 52.3 | 87.0 | 82.9 |
